Data on 13 substances can be found in patent US5756458A, “Stabilized potent GRF analogs” (Pharmacia & Upjohn Company, priority 1995, dated 1998).

Where two headings read alike, the source gives them in different places. Where no end group is shown, it is not given here.

Data set [1] relates to primary cultures of rat anterior pituitary cells. As to conditions: GH secretion; cited from earlier work.
Data set [2] can be described thus: In vitro stability in bovine plasma. The format is in vitro ADME. The procedure: | ^.noteq. Peptides at 0.03 mM were incubated with bovine plasma at | 37° C. for one hr. Aliquots of 0.1 ml were quenched with 2 ml of | 0.2% aqueous trifluoroacetic acid solution and subjected to solid phase | extraction and HPLC analysis as described in T.M. Kubiak et al. Drug Met. | Disp. 17, 393-397 (1989).

Data set [3] deals with Steers. The format is in vivo, steer. Here is the method: | ^# Steers were injected iv with peptides at the dose of 0.01 nmol/kg | and the procedures were as described in W.M. Moseley et al. J. Endocr. | 117, 253-259 (1988). Relative potency was calculated on the basis of the | area under serum growth hormone (GH) curve monitored for 2 hrs after | treatment.
The subject of data set [4] is Steers. The format is in vivo, steer. Particulars: STUDY II, subcutaneous 0.75 nmol/kg, area under serum GH curve, 6 hrs after treatment, bGRF(1-44)NH2 = 100. The procedure: | ^.sctn. Steers were injected subcutaneously with peptides at the dose | of 0.75 nmol/kg. Relative potency was calculated on the basis of the area | under serum GH curve monitored for 6 hrs after treatment.

The target in data set [5] is T1, plasma DPP-IV (Bos taurus, UniProt P81425).
T1 construct: from tissue; host or cells: bovine plasma (two different plasma pools)
The experiment in a line: Cleavage after residue 2 by plasma DPP-IV on incubation in bovine plasma in vitro. Format: in vitro ADME. Also on record: Cleavage after residue 2 (footnote mark ++): key to the marks not given beside the values. The procedure: Evidence of the improved metabolic stability of the compounds of this invention (when compared to native GRF) is illustrated in Table I by the in vitro stability data provided. It is noteworthy that in bovine plasma in vitro, the analogs having Thr^2, Val^2, Ile^2 or Leu^2 were not cleaved after residue 2 by plasma DPP-IV under the experimental conditions used in the study (one hour plasma incubation).
++ No cleavage after residue 2 was observed upon incubation in bovine
plasma in vitro over a 1 hr incubation period.

Data set [6] has as its system meal-fed Holstein steers. The experiment in a line: Mean serum GH in meal-fed Holstein steers after intravenous injection (FIG. 2). The format is in vivo. As to conditions: dose of 0.01 nmol/kg (10 pmol/kg). Here is the method:
The enhanced in vivo potency of the compounds of this invention where R19 is Val or Ile is illustrated in FIGS. 1 and 2.
Mean concentration of serum growth hormone (GH) in meal-fed Holstein steers after intravenous injection (10 pmol/kg) of GRF analogs. The assay was performed as described by Moseley et al., J. Endocrinol. 117, 252-259 (1988). Bovine GRF(1-44)NH2 was used as the assay standard.

In data set [7] the test system is rat pituitary cell cultures. The experiment in a line: Growth hormone (GH) release in rat pituitary cell cultures in vitro (FIG. 1). The format is cell-based. Particulars: Leu^27 -bGRF(1-29)NH2 assay standard. Here is the method:
Effect of analogs of Thr^2, Ala^15, Leu^27 -bGRF(1-29)NH2 on growth hormone (GH) release in rat pituitary cell cultures in vitro. The assay was performed according to procedure of Frohman and Downs, Methods Enzymol. 124, 371-389 (1986). […] Leu^27 -bGRF(1-29)NH2 was used as the assay standard.

Setting [8] is: bovine plasma, STUDY II, plasma pool 2, peptide 0.03 mM, bovine plasma, 37° C., one hr, read-out: In vitro stability (% Inact peptide after 1 hr).
The mark [9] stands for this setting: bovine plasma, STUDY I, plasma pool 1, peptide 0.03 mM, bovine plasma, 37° C., one hr, read-out: In vitro stability (% Inact peptide after 1 hr).

T1 sequence (P81425 38-765 limits assumed): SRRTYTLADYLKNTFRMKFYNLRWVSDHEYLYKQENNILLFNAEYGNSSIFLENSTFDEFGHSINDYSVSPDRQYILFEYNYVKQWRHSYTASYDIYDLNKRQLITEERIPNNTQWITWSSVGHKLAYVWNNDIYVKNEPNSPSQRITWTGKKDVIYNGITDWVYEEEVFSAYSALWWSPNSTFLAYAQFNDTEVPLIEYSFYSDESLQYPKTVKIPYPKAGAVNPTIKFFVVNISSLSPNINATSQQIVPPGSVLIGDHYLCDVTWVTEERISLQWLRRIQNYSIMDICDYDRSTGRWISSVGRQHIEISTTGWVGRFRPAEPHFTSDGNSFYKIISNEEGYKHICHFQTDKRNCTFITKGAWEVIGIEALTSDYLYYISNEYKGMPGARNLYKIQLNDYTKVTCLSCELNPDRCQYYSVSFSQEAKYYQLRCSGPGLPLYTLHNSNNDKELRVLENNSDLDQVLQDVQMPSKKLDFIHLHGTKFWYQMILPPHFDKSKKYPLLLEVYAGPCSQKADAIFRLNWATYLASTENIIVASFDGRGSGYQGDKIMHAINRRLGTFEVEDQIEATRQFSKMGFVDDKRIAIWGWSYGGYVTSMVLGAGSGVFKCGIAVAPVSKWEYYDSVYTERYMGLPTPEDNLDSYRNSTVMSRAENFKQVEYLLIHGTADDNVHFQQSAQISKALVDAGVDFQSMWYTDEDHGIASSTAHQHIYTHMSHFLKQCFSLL

With “H-Tyr-Ala-Asp-Ala-Ile-Phe-Ser-Ser-Ala-Tyr-Arg-Arg-Leu-Leu-Ala-Gln-Leu-Ala- Ser-Arg-Arg-Leu-Leu-Gln-Glu-Leu-Leu-Ala-Arg-NH2 /OH [amide analog] (H-YADAIFSSAYRRLLAQLASRRLLQELLAR-NH2) [29-amino acid analog of hGRF designed by G. Velicelebi, et al., amide form]”, the “Potency relative to hGRF(1-40)OH (times as potent)” value in data set [1] is reported as 1.57. In the case of “H-Tyr-Ala-Asp-Ala-Ile-Phe-Ser-Ser-Ala-Tyr-Arg-Arg-Leu-Leu-Ala-Gln-Leu-Ala- Ser-Arg-Arg-Leu-Leu-Gln-Glu-Leu-Leu-Ala-Arg-NH2 /OH [free acid form] (H-YADAIFSSAYRRLLAQLASRRLLQELLAR-OH) [29-amino acid analog of hGRF designed by G. Velicelebi, et al., free acid form]”, in data set [1], the “Potency relative to hGRF(1-40)OH (times as potent)” value is on record as 1/6. Take “H-YIDAIFTNSYRKVLAQLSARKLLQDILNR-NH2 [Ile^2,Ala^15,Leu^27-bGRF(1-29)NH2]”: the remaining at 1 h, 0.03 mM in data set [2] (setting [8]) came to 80.3%. For the same substance, in data set [3] (extrapolated from relative in vivo potency at 0.01 nmol/kg, ED50 not determined), the “Expected potency relative to isomer Leu^2 Ala^15 Leu^27 bGRF(1-29)NH2 when the ED50 of each is determined and compared” value is on record as 10-20 times. In addition, in data set [4], the “In vivo relative potency sc” value stood at 16c. Substance “H-YTDAIFTNSYRKVLAQLSARKLLQDILNR-NH2 [Thr^2,Ala^15,Leu^27-bGRF(1-29)NH2]” showed a remaining at 1 h, 0.03 mM in data set [2] (plasma, In vitro stability (% Inact peptide after 1 hr)) of 91.1%. Besides, in data set [5], the “Cleavage after residue 2 (footnote mark ++)” value is recorded as “++” and the DPP-IV related cleavage result was “slight DPP-IV related cleavage”. Consider H-YTDAIFTNSYRKVLAQLSVRKLLQDILNR-NH2, for which the “In vivo bioactivity compared with native GRF” value in data set [6] was “more bioactive than the native GRF”. Also, in data set [7], the “GH-releasing bioactivity in vitro as compared with Thr^2, Ala^15, Leu^27 -bGRF(1-29)NH2” value is “increased”. “H-YVDAIFTNSYRKVLAQLSARKLLQDILNR-NH2 [Val^2,Ala^15,Leu^27-bGRF(1-29)NH2]”: the remaining at 1 h, 0.03 mM in data set [2] (setting [8]) is 83.4%.

Turning to “YADAIFTNSYRKVLAQLSARKLLQDILNR-NH2 [Ala^15,Leu^27-bGRF(1-29)NH2, reference compound]”, the remaining at 1 h, 0.03 mM in data set [2] (setting [9]) was 56.2%. Regarding “YADAIFTNSYRKVLGQLSARKLLQDILNR-NH2 [Leu^27-bGRF(1-29)NH2, reference compound]”, the remaining at 1 h, 0.03 mM in data set [2] (setting [9]) worked out at 39.8%; in data set [2] (setting [8]) it was 46.8%. As for “YLDAIFTNSYRKVLAQLSARKLLQDILNR-NH2 [Leu^2,Ala^15,Leu^27-bGRF(1-29)NH2, reference compound]”, the remaining at 1 h, 0.03 mM in data set [2] (setting [8]) stood at 86.3%.

With YTDAIFTNSYRKVLAQLSIRKLLQDILNR-NH2, the “In vivo bioactivity compared with native GRF” value in data set [6] was “more bioactive than the native GRF”. Besides, the “GH-releasing bioactivity in vitro as compared with Thr^2, Ala^15, Leu^27 -bGRF(1-29)NH2” value in data set [7] is on record as “unchanged”. Consider “YTDAIFTNSYRKVLAQLSLRKLLQDILNR-NH2 [Leu^19]”, for which, in data set [7], the “GH-releasing bioactivity in vitro as compared with Thr^2, Ala^15, Leu^27 -bGRF(1-29)NH2” value is recorded as “deleterious”.

Consider “YTDAIFTNSYRKVLGQLSARKLLQDILNR-NH2 [Thr^2,Leu^27-bGRF(1-29)NH2]”, for which the remaining at 1 h, 0.03 mM in data set [2] (setting [9]) came to 75.6%. bGRF(1-14)NH2 [reference compound]: in data set [3] (STUDY I, steers, iv 0.01 nmol/kg, area under serum GH curve, 2 hrs after treatment, native bGRF standard = 100), the “In vivo relative potency iv” value is 100.
